The target in this assay is T1, human OX1 receptor (Homo sapiens, UniProt O43613).
T1 sequence (O43613 1-425): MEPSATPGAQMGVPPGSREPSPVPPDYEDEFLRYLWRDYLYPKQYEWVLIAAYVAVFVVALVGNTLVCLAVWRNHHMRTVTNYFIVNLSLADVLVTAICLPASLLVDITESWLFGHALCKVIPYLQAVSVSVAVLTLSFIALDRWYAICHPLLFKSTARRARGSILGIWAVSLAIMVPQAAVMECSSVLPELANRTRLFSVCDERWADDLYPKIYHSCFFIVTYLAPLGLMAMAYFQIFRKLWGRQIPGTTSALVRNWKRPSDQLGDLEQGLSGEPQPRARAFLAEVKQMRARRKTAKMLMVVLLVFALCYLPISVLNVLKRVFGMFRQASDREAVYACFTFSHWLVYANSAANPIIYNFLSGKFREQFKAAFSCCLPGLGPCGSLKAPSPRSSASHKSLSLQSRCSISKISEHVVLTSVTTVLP
Kind of assay: [3H]-radioligand binding assay, OX1. Further details: made in house; host or cells: SF21 insect cells (baculovirus; P0 virus made in SF9). Conditions: [3H]-radioligand binding, human OX1 membranes; read-out: pKi average OX1 (converted). The text has this:
Cloning, Baculovirus generation, large-scale infection of SF21 cells and membrane preparation. Human OX1 or OX2 receptor were cloned into Invitrogen's (ThermoFisher Scientific, UK) Bac-to-Bac Baculovirus Expression System. P0 baculovirus was generated by transfecting SF9 cells with bacmid DNA using Cellfectin® II transfection reagent (ThermoFisher Scientific, UK, Catalog number 10362-100). Following P0 generation P1 virus was then generated ready for large scale infection and membrane preparation. SF21 cells were grown in expression medium ESF921 (Expression Systems, USA, catalog number 96-001-01) supplemented with 10% heat-inactivated FBS and 1% Pen/Strep and were infected at a cell density of 2.5×10^6 cells/mL and a multiplicity of infection of 1.0 for both human OX1R and OX2R. Incubation was carried out at over 48 h in a shaking incubator set at 27° C. The cell culture was then centrifuged at 2,500 rcf for 10 min at 4° C. The pellets were resuspended in cold PBS supplemented with Roche's Complete EDTA-free protease inhibitor cocktail tablets (Roche Applied Sciences, catalog number 05056489001), 1 mM PMSF and 1 mM EDTA. The resuspended cell paste was then centrifuged at 3,273 rcf for 12 min at 4° C. The supernatant was discarded and the pellet frozen at −80° C. The cell pellet from a 4 L culture was resuspended in buffer containing 50 mM HEPES pH 7.5, 150 mM NaCl, 8 Roche EDTA-Free protease inhibitor cocktail tablets and 1 mM PMSF. The suspension was left stirring at rt for 1 h and then homogenised for 90 s at 9,500 rpm using a VDI 25 (VWR, USA) homogeniser. The cells were then lysed using a Microfluidiser processor M-110L Pneumatic (Microfluidics, USA) at 60 PSI and membranes collected by ultracentrifugation at 204.7 k×g for 1 h. The supernatant was discarded and the pellet was resuspended and homogenised in 90 s at 9,500 rpm in 50 mL (25 mL for each 2 L culture) of buffer containing 50 mM Hepes pH 7.5, 150 mM NaCl, 3 Roche EDTA-free protease inhibitor cocktail tablets and 1 mM PMSF. The resulting membranes were then stored at −80° C.
[^3H]-radioligand binding assay. After thawing, membrane homogenates were resuspended in the binding buffer (8.5 mM HEPES, pH 7.4, 1.3 mM CaCl2, 1.2 mM MgSO4, 118 mM NaCl, 4.7 mM KCl, 4 mM NaHCO3, 1.2 mM KH2PO4, 11 mM glucose) to a final assay concentration of 6.4 μg (OX1) or 1.4 μg (OX2) protein per well. Saturation isotherms were determined by the addition of various concentrations (0-30 nM) of [^3H]-4-(2,6-difluoro-4-methoxybenzyl)-2-(5,6-dimethoxypyridin-3-yl)-2H-1,2,4-benzothiadiazin-3(4H)-one 1,1-dioxide (Christopher et al, MedChemComm., 2015, 6, 947-955) in a total reaction volume of 250 μL for 90 min at rt. At the end of the incubation, membranes were filtered onto a 96-well GF/B filter pre-incubated with 0.5% polyethylenimine, with a Tomtec cell harvester and washed 5 times with 0.5 mL distilled water. Non-specific binding (NSB) was measured in the presence of 3.33 μM [4-(5-chloro-1,3-benzoxazol-2-yl)-7-methyl-1,4-diazepan-1-yl][5-methyl-2-(2H-1,2,3-triazol-2-yl)phenyl]methanone (Wertz et al, Angew. Chem. Int. Ed., 2011, 50, 11511-11515). Radioactivity on the filter was counted (1 min) on a Microbeta radiometric plate counter (Perkin Elmer) after addition of 50 μL of scintillation fluid (LabLogic: Part #SG-BXX-14). […] IC50 values were derived from the inhibition curve and the equilibrium dissociation constant (Ki) values were calculated using the Cheng-Prusoff equation.
Regarding `COc1ncc(C2CCc3c(F)cccc3N(Cc3c(F)cc(Br)cc3F)C2=O)cc1S(C)(=O)=O` (racemic) [Example 19, 1-(4-bromo-2,6-difluorobenzyl)-6-fluoro-3-[6-methoxy-5-(methylsulfonyl)pyridin-3-yl]-1,3,4,5-tetrahydro-2H-1-benzazepin-2-one], the Ki was 3.98 nM.

Turning to `COc1ncc(C2CCc3c(F)cccc3N(Cc3c(F)cc(Br)cc3F)C2=O)cc1C(C)(F)F` (single isomer, unassigned) [Example 12, 1-(4-bromo-2,6-difluorobenzyl)-3-[5-(1,1-difluoroethyl)-6-methoxypyridin-3-yl]-6-fluoro-1,3,4,5-tetrahydro-2H-1-benzazepin-2-one], the Ki was 0.398 nM.

With `COc1ncc(C2CCc3c(F)cccc3N(Cc3cc(C#N)ccc3F)C2=O)cc1C(C)(F)F` (single isomer, unassigned) [Example 13, 3-({3-[5-(1,1-difluoroethyl)-6-methoxypyridin-3-yl]-6-fluoro-2-oxo-2,3,4,5-tetrahydro-1H-1-benzazepin-1-yl}methyl)-4-fluorobenzonitrile], the Ki is 0.794 nM.

Take `COc1ncc(C2CCc3c(F)cccc3N(Cc3c(F)cc(Br)cc3F)C2=O)cc1S(C)(=O)=O` (single isomer, unassigned) [Example 21, 1-(4-bromo-2,6-difluorobenzyl)-6-fluoro-3-[6-methoxy-5-(methylsulfonyl)pyridin-3-yl]-1,3,4,5-tetrahydro-2H-1-benzazepin-2-one]: the Ki is 0.316 nM.

Turning to `COc1ncc(C2CCc3c(F)cccc3N(Cc3c(F)cc(Cl)cc3F)C2=O)cc1S(C)(=O)=O` (single isomer, unassigned) [Example 22, 1-(4-chloro-2,6-difluorobenzyl)-6-fluoro-3-[6-methoxy-5-(methylsulfonyl)pyridin-3-yl]-1,3,4,5-tetrahydro-2H-1-benzazepin-2-one], the Ki is 0.501 nM.

Regarding `Cc1ncc(C2CCc3c(F)cccc3N(Cc3c(F)cc(Br)cc3F)C2=O)cc1C(C)(F)F` (single isomer, unassigned) [Example 35, 1-(4-bromo-2,6-difluorobenzyl)-3-[5-(1,1-difluoroethyl)-6-methylpyridin-3-yl]-6-fluoro-1,3,4,5-tetrahydro-2H-1-benzazepin-2-one], the Ki is 2 nM.

As to `Cc1ncc(C2CCc3c(F)cccc3N(Cc3c(F)cc(Br)cc3F)C2=O)cc1C(C)(F)F` (single isomer, unassigned) [Example 36, 1-(4-bromo-2,6-difluorobenzyl)-3-[5-(1,1-difluoroethyl)-6-methylpyridin-3-yl]-6-fluoro-1,3,4,5-tetrahydro-2H-1-benzazepin-2-one], the Ki was 0.631 nM.

As for `Cc1ncc(C2CCc3c(F)cccc3N(Cc3c(F)cc(Br)cc3F)C2=O)cc1S(C)(=O)=O` (single isomer, unassigned) [Example 38, 1-(4-bromo-2,6-difluorobenzyl)-6-fluoro-3-[6-methyl-5-(methylsulfonyl)pyridin-3-yl]-1,3,4,5-tetrahydro-2H-1-benzazepin-2-one], the Ki is 10 nM.

Consider `Cc1ncc(C2CCc3c(F)cccc3N(Cc3c(F)cc(Br)cc3F)C2=O)cc1S(C)(=O)=O` (single isomer, unassigned) [Example 39, 1-(4-bromo-2,6-difluorobenzyl)-6-fluoro-3-[6-methyl-5-(methylsulfonyl)pyridin-3-yl]-1,3,4,5-tetrahydro-2H-1-benzazepin-2-one], for which the Ki was 1.26 nM.

Consider `Cc1ccc(N2CCc3c(F)cccc3N(Cc3c(F)cc(Br)cc3F)C2=O)cc1C(C)(F)F` [Example 1, 1-(4-bromo-2,6-difluorobenzyl)-3-[3-(1,1-difluoroethyl)-4-methylphenyl]-6-fluoro-1,3,4,5-tetrahydro-2H-1,3-benzodiazepin-2-one], for which the Ki is 2 nM.

For the molecule `[2H]C([2H])([2H])Oc1ncc(N2CCc3c(F)cccc3N(Cc3c(F)cc(Br)cc3F)C2=O)cc1C(C)(F)F` [Example 2, 1-(4-bromo-2,6-difluorobenzyl)-3-{5-(1,1-difluoroethyl)-6-[(^2H3)methyloxy]pyridin-3-yl}-6-fluoro-1,3,4,5-tetrahydro-2H-1,3-benzodiazepin-2-one], the Ki is 0.631 nM.

For the molecule `COc1ncc(N2CCc3c(F)cccc3N(Cc3c(F)cc(Br)cc3F)C2=O)cc1C(C)(F)F` [Example 3, 1-(4-bromo-2,6-difluorobenzyl)-3-[5-(1,1-difluoroethyl)-6-methoxypyridin-3-yl]-6-fluoro-1,3,4,5-tetrahydro-2H-1,3-benzodiazepin-2-one], the Ki is 1.26 nM.

Take `COc1ccc(CN2C(=O)N(c3cnc(OC)c(C(C)(F)F)c3)CCc3c(F)cccc32)c(F)c1` [Example 4, 3-[5-(1,1-difluoroethyl)-6-methoxypyridin-3-yl]-6-fluoro-1-(2-fluoro-4-methoxybenzyl)-1,3,4,5-tetrahydro-2H-1,3-benzodiazepin-2-one]: the Ki is 0.794 nM.

Turning to `[2H]C([2H])([2H])OCc1cc(F)c(CN2C(=O)N(c3cnc(OC)c(C(C)(F)F)c3)CCc3c(F)cccc32)c(F)c1` [Example 5, 3-[5-(1,1-difluoroethyl)-6-methoxypyridin-3-yl]-1-(2,6-difluoro-4-{[(^2H3)methyloxy]methyl}benzyl)-6-fluoro-1,3,4,5-tetrahydro-2H-1,3-benzodiazepin-2-one], the Ki was 0.316 nM.

As to `[2H]C([2H])([2H])Oc1cc(F)c(CN2C(=O)N(c3cnc(OC)c(C(C)(F)F)c3)CCc3c(F)cccc32)c(F)c1` [Example 6, 3-[5-(1,1-difluoroethyl)-6-methoxypyridin-3-yl]-1-{2,6-difluoro-4-[(^2H3)methyloxy]benzyl}-6-fluoro-1,3,4,5-tetrahydro-2H-1,3-benzodiazepin-2-one], the Ki was 0.398 nM.

For the molecule `COCc1cc(F)c(CN2C(=O)N(c3cnc(OC)c(C(C)(F)F)c3)CCc3c(F)cccc32)c(F)c1` [Example 7, 3-[5-(1,1-difluoroethyl)-6-methoxypyridin-3-yl]-1-[2,6-difluoro-4-(methoxymethyl)benzyl]-6-fluoro-1,3,4,5-tetrahydro-2H-1,3-benzodiazepin-2-one], the Ki was 1 nM.

As to `COc1cc(F)c(CN2C(=O)N(c3cnc(OC)c(C(C)(F)F)c3)CCc3c(F)cccc32)c(F)c1` [Example 8, 3-[5-(1,1-difluoroethyl)-6-methoxypyridin-3-yl]-1-(2,6-difluoro-4-methoxybenzyl)-6-fluoro-1,3,4,5-tetrahydro-2H-1,3-benzodiazepin-2-one], the Ki was 0.398 nM.

Take `COc1ncc(N2CCc3c(F)cccc3N(Cc3c(F)cc(Cl)cc3F)C2=O)cc1C(C)(F)F` [Example 9, 1-(4-chloro-2,6-difluorobenzyl)-3-[5-(1,1-difluoroethyl)-6-methoxypyridin-3-yl]-6-fluoro-1,3,4,5-tetrahydro-2H-1,3-benzodiazepin-2-one]: the Ki is 0.794 nM.
